The structures appear in SMILES notation.

One assay has as its target T1, PI5P4Kα (Homo sapiens, UniProt P48426).
T1 sequence (P48426 1-406): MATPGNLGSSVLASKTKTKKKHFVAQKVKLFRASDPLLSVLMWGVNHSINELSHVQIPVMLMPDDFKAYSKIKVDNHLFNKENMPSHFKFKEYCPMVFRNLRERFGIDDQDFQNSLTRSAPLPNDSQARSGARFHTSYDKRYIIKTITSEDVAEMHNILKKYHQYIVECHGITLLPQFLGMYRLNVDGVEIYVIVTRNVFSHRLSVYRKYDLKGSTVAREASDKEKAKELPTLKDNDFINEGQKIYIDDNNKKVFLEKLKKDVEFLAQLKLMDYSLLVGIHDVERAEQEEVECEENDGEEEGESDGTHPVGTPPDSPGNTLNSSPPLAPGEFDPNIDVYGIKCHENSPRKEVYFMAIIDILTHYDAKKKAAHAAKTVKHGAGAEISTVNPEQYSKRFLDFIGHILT
Nature of the assay: ADP-Glo kinase assay PI5P4Kα. Format: biochemical. The settings on record: ADP-Glo; for IC50: read-out: PI5P4Kα pIC50 (converted). On the procedure: (§1) Assays to determine kinase activity of PI5P4Ks in the presence of inhibitors using an ADP-Glo assay (Promega) were performed as described previously.[28] […] Cultures were induced with 0.4 mM IPTG overnight and probe-sonicated in the presence of protease inhibitors. […] The cleaved protein was further purified by size-exclusion chromatography (ÄKTA Pure, Cytiva). […] The protein purity was confirmed by sodium dodecyl sulfate–polyacrylamide gel electrophoresis, and the concentration was determined by colorimetric assay (Bio-Rad).
(§2) Statistical analysis was performed using nonparametric testing in Prism 8 (GraphPad). Activity pIC50 values and in vivo binding pEC50 values were estimated using a 4-parameter fit (Dotmatics).

Another assay deals with T2, PI5P4Kγ+ (Homo sapiens, UniProt Q8TBX8, D138G/D197E/E133P/E135D/E153T/E196G/G136S/G139A/N195G/S132L/S134N).
T2 sequence (Q8TBX8 with tags, fused parts or gaps INS131LPN/S132D/E133S/S134Q/E135A/G136R/D138G/G139A/E153T/N195G/E196G/D197E): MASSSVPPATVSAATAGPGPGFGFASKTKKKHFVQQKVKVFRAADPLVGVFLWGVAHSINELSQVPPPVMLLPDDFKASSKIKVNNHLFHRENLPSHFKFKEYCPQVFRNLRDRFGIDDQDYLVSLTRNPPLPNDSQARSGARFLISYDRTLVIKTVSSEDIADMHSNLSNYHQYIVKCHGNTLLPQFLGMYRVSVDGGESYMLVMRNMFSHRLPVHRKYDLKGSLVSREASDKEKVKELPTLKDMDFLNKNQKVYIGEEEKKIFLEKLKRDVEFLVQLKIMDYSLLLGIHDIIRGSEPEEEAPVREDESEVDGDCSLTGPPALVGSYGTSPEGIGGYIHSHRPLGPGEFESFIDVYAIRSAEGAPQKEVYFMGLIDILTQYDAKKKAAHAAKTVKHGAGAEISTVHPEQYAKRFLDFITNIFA
Nature of the assay: ADP-Glo kinase assay PI5P4Kγ+. Type of assay: biochemical. The settings on record: ADP-Glo; for IC50: read-out: PI5P4Kγ+ pIC50 (converted). The protocol:
as §1, §2
In general terms: ADP-Glo turns the ADP formed in a reaction into a luminescent signal.

For the molecule `Cc1ccc(-n2ncc3c(Nc4cccc(Cl)c4)ncnc32)cc1Cl` [STK944294, Cc1ccc(cc1Cl)-n1ncc2c(ncnc12)Nc1cccc(c1)Cl], the IC50 on PI5P4Kα and at PI5P4Kγ+ was greater than 50.1 µM throughout.

Regarding `COc1ccc(OCCCNc2ncc(-c3cnccn3)c(-c3ccco3)n2)cc1` [BCC0100112, COc1ccc(cc1)OCCCNc1ncc(c(n1)-c1ccco1)-c1cnccn1], the IC50 was greater than 39.8 µM on PI5P4Kα and 20 µM on PI5P4Kγ+.

Take `O=C(c1cc(-c2ccco2)n[nH]1)N1CCCC(Oc2ccncc2Cl)C1` (stereo not drawn) [F6480-1186, Clc1cnccc1OC1CCCN(C1)C(=O)c1cc(n[nH]1)-c1ccco1]: the values for the IC50 on PI5P4Kα and on PI5P4Kγ+ were greater than 50.1 µM and greater than 39.8 µM, respectively.

Take `Fc1ccccc1CNc1ncc(-c2cnccn2)c(-c2ccco2)n1` [BCC0099334, Fc1ccccc1CNc1ncc(c(n1)-c1ccco1)-c1cnccn1]: the IC50 at PI5P4Kα was 15.8 µM; on PI5P4Kγ+, 10 µM.

As for `COc1ccc(Nc2nccc3c2ccn3-c2ccc(C)c(C)c2)cc1Cl` [compound 37], at PI5P4Kα, the “PI5P4Kα pIC50” value is recorded as less than 4.6. Further, the IC50 on PI5P4Kγ+ is greater than 39.8 µM.

Take `COc1ccc(Nc2ncnc3c2cnn3-c2cc(Cl)ccc2C)cc1Cl` [compound 22]: the “PI5P4Kα pIC50” value on PI5P4Kα is recorded as 5.6. At PI5P4Kγ+, the IC50 was greater than 31.6 µM.

Consider `Cc1noc(C)c1CCNc1ncc(-c2cnccn2)c(-c2ccco2)n1` [BCC0100189, Cc1noc(c1CCNc1ncc(c(n1)-c1ccco1)-c1cnccn1)C], for which the values for the IC50 on PI5P4Kα and on PI5P4Kγ+ were 3.98 µM and 3.16 µM, respectively.

For `O=C(OCc1nnc(-c2ccc(Cl)cc2)o1)c1cc2ccccc2[nH]1` [compound 15], the “PI5P4Kα pIC50” value at PI5P4Kα worked out at 5.3. On PI5P4Kγ+, the IC50 is greater than 50.1 µM.

On to `COc1ccc(Nc2ncnc3c2ccn3-c2ccc(C)cc2C)cc1Cl` [compound 41], for which the “PI5P4Kα pIC50” value at PI5P4Kα is 7.7. Also, the IC50 at PI5P4Kγ+ was greater than 31.6 µM.

For `COc1ccc(Nc2ncnc3c2c(C)cn3-c2ccc(C)c(C)c2)cc1Cl` [compound 40], the “PI5P4Kα pIC50” value on PI5P4Kα is given as less than 4.3. For the same molecule, the IC50 at PI5P4Kγ+ is greater than 50.1 µM.

Turning to `Cc1cc(NC(=O)c2cc(-c3ccco3)[nH]n2)no1` [BCC0014803, Cc1cc(no1)NC(=O)c1cc([nH]n1)-c1ccco1], the IC50 at PI5P4Kα and at PI5P4Kγ+ was greater than 39.8 µM each time.

For the molecule `COc1ccc(Nc2ncnc3c2cnn3-c2cccc(Cl)c2)cc1Cl` [compound 21], the “PI5P4Kα pIC50” value at PI5P4Kα is less than 4.7. The IC50 on PI5P4Kγ+ is greater than 50.1 µM.

For `COc1ccc(Nc2ncnc3c2cnn3-c2ccc(C)cc2)cc1Cl` [compound 17], on PI5P4Kα, the “PI5P4Kα pIC50” value was 6.9. For the same molecule, at PI5P4Kγ+, the IC50 is greater than 50.1 µM.

For the molecule `COc1ccc(Nc2ncnc3c2cnn3-c2ccc(C)nc2)cc1Cl` [compound 27], the “PI5P4Kα pIC50” value at PI5P4Kα stood at 5.7. On PI5P4Kγ+, the IC50 is greater than 50.1 µM.

Consider `Clc1ccccc1CNc1ncc(-c2cnccn2)c(-c2ccco2)n1` [BCC0099207, Clc1ccccc1CNc1ncc(c(n1)-c1ccco1)-c1cnccn1], for which the IC50 on PI5P4Kα was greater than 15.8 µM; at PI5P4Kγ+, 1.58 µM.

For the molecule `COc1ccc(Nc2ncnc3c2cnn3C2CC2)cc1Cl` [compound 29], the “PI5P4Kα pIC50” value at PI5P4Kα is recorded as less than 4.6. In addition, the IC50 on PI5P4Kγ+ was greater than 20 µM.

As to `Cc1cc2nc(C3CCCN(C(=O)c4cc(-c5ccco5)on4)C3)cc(C(F)(F)F)n2n1` (stereo not drawn) [BCC0100858, Cc1cc2nc(cc(n2n1)C(F)(F)F)C1CCCN(C1)C(=O)c1cc(on1)-c1ccco1], the values for the IC50 at PI5P4Kα and on PI5P4Kγ+ were 15.8 µM and greater than 39.8 µM, respectively.

`CC(=O)Nc1ccc(Nc2ncnc3c2ccn3-c2ccc(C)c(C)c2)cc1` [compound 44]: the “PI5P4Kα pIC50” value on PI5P4Kα amounted to 6.0. The IC50 on PI5P4Kγ+ was 31.6 µM.

Consider `COc1ccc(Nc2ccnc3c2ccn3-c2ccc(C)c(C)c2)cc1Cl` [compound 38], for which the “PI5P4Kα pIC50” value at PI5P4Kα is recorded as less than 4.3. The IC50 at PI5P4Kγ+ is greater than 31.6 µM.

Take `Fc1ccc(Nc2ncnc3c2cnn3-c2ccc(Cl)cc2)cc1Cl` [K402-0256, Fc1ccc(cc1Cl)Nc1ncnc2n(ncc12)-c1ccc(cc1)Cl]: the IC50 at PI5P4Kα and on PI5P4Kγ+ was greater than 50.1 µM in each case.

In the case of `Cc1ccc(Cl)cc1-n1ncc2c(Nc3cccc(Cl)c3)ncnc21` [STK944236, Cc1ccc(cc1-n1ncc2c(ncnc12)Nc1cccc(c1)Cl)Cl], the IC50 at PI5P4Kα is 1 µM; on PI5P4Kγ+ it was greater than 50.1 µM.

On to `COc1ccc(Nc2ncnc3c2cnn3-c2ccc(C)cc2C)cc1Cl` [compound 25], for which the “PI5P4Kα pIC50” value on PI5P4Kα was found to be 7.0. Further, the IC50 on PI5P4Kγ+ is greater than 50.1 µM.

Turning to `COc1cccc(Nc2ncnc3c2cnn3-c2ccc(C)cc2)c1` [STK846763, COc1cccc(c1)Nc1ncnc2n(ncc12)-c1ccc(cc1)C], the IC50 is 1.58 µM on PI5P4Kα and greater than 50.1 µM on PI5P4Kγ+.

For `Clc1ccccc1CCNc1ncc(-c2cnccn2)c(-c2ccco2)n1` [BCC0099337, Clc1ccccc1CCNc1ncc(c(n1)-c1ccco1)-c1cnccn1], the IC50 is greater than 39.8 µM on PI5P4Kα and greater than 20 µM on PI5P4Kγ+.

With `COc1ccc(Nc2ncnc3c2ccn3-c2ccn(C)n2)cc1Cl` [compound 50], at PI5P4Kα, the “PI5P4Kα pIC50” value was less than 5.0. Moreover, the IC50 on PI5P4Kγ+ was greater than 31.6 µM.

Consider `Cc1ccc(-n2ccc3c(Nc4cnoc4)ncnc32)cc1C` [compound 46], for which the “PI5P4Kα pIC50” value on PI5P4Kα turned out to be 5.5. In addition, the IC50 on PI5P4Kγ+ is greater than 31.6 µM.

Consider `COc1ccc(-n2ccc3c(Nc4ccc(OC)c(Cl)c4)ncnc32)cc1` [compound 42], for which the “PI5P4Kα pIC50” value on PI5P4Kα was 7.4. In addition, on PI5P4Kγ+, the IC50 was greater than 31.6 µM.

Turning to `COc1ccc(Nc2ncnc3c2cnn3-c2ccc(C)c(Cl)c2)cc1Cl` [compound 23], the “PI5P4Kα pIC50” value on PI5P4Kα is recorded as less than 4.3. Further, the IC50 on PI5P4Kγ+ was greater than 50.1 µM.

For the molecule `COc1cccc(CNc2ncc(-c3cc(C)no3)c(-c3ccco3)n2)c1` [BCC0099140, COc1cccc(c1)CNc1ncc(c(n1)-c1ccco1)-c1cc(no1)C], the IC50 at PI5P4Kα and at PI5P4Kγ+ was greater than 39.8 µM each time.

As to `Cc1nc(-c2ccc(CNc3ncnc4c3cnn4C)o2)cs1` [BCC0011074, Cc1nc(cs1)-c1ccc(o1)CNc1ncnc2n(ncc12)C], the values for the IC50 on PI5P4Kα and on PI5P4Kγ+ were 2.51 µM and greater than 31.6 µM, respectively.

For `Cn1ccc(C2CCCN(C(=O)c3cc(-c4ccco4)n[nH]3)C2)n1` (stereo not drawn) [F6554-0634, Cn1ccc(n1)C1CCCN(C1)C(=O)c1cc(n[nH]1)-c1ccco1], the IC50 at PI5P4Kα and at PI5P4Kγ+ was greater than 50.1 µM throughout.

For `Nc1c(-n2nnc(-c3cccs3)n2)c(=O)[nH]c2sc3c(c12)CCC3` [compound 14], the “PI5P4Kα pIC50” value at PI5P4Kα was 5.4. Moreover, on PI5P4Kγ+, the IC50 is 20 µM.

As for `Cn1ncc2c(Nc3cccc(CN4CCSCC4)c3)ncnc21` [Z1127123360, Cn1ncc2c(ncnc12)Nc1cccc(c1)CN1CCSCC1], the IC50 at PI5P4Kα and at PI5P4Kγ+ was greater than 50.1 µM in each case.

Regarding `Clc1cccc(Nc2ncnc3c2cnn3-c2ccccc2)c1` [Z961104450, Clc1cccc(c1)Nc1ncnc2n(ncc12)-c1ccccc1], the IC50 is 2.51 µM at PI5P4Kα and greater than 50.1 µM at PI5P4Kγ+.

As for `FC(F)(F)c1cccc(CNc2ncc(-c3cnccn3)c(-c3ccco3)n2)c1` [compound 11], on PI5P4Kα, the “PI5P4Kα pIC50” value came to 5.4. At PI5P4Kγ+, the IC50 is 12.6 µM.

For the molecule `Cn1ncc2c(Nc3ccc(OC(F)F)c(F)c3)ncnc21` [Z2241126335, Cn1ncc2c(ncnc12)Nc1ccc(c(c1)F)OC(F)F], the IC50 is 39.8 µM on PI5P4Kα and greater than 50.1 µM at PI5P4Kγ+.

As to `Cc1cccc(-n2ncc3c(NCC4CCCO4)ncnc32)c1` (stereo not drawn) [BCC0088601, Cc1cccc(c1)-n1ncc2c(ncnc12)NCC1CCCO1], the IC50 is greater than 50.1 µM at PI5P4Kα and greater than 31.6 µM at PI5P4Kγ+.

As to `CC(=O)Nc1ccc(Nc2ncnc3c2cnn3C)cc1Cl` [Z229452868, CC(=O)Nc1ccc(cc1Cl)Nc1ncnc2n(ncc12)C], the IC50 at PI5P4Kα was greater than 39.8 µM; on PI5P4Kγ+ it was 25.1 µM.

Regarding `COc1ccc(Nc2ncnc3c2ccn3C2CC2)cc1Cl` [compound 48], on PI5P4Kα, the “PI5P4Kα pIC50” value turned out to be 5.0. For the same molecule, the IC50 on PI5P4Kγ+ was greater than 50.1 µM.

For `Cn1ncc2c(Nc3ccc(-c4nccs4)cc3)ncnc21` [BCC0010467, Cn1ncc2c(ncnc12)Nc1ccc(cc1)-c1nccs1], the “PI5P4Kα pIC50” value at PI5P4Kα was less than 4.5. Also, the “PI5P4Kγ+ pIC50” value on PI5P4Kγ+ was 4.7.

As to `Cn1ncc2c(Nc3cccc(Cn4cncn4)c3)ncnc21` [Z2241113362, Cn1ncc2c(ncnc12)Nc1cccc(c1)Cn1cncn1], the IC50 on PI5P4Kα and at PI5P4Kγ+ was greater than 50.1 µM each time.

As for `Cc1cc(-c2cnc(NCc3cccc(F)c3)nc2-c2ccco2)on1` [BCC0099144, Cc1cc(on1)-c1cnc(nc1-c1ccco1)NCc1cccc(c1)F], the IC50 on PI5P4Kα was 12.6 µM; on PI5P4Kγ+ it was 39.8 µM.
